Measured values reported in US12234221B2, “Pyridine carboxamide compounds for inhibiting NAV1.8” (Lieber Institute, Inc., priority 2018, dated 2025).

Biological target: T1, human Nav1.8 (hNav1.8) ion channel (Homo sapiens, UniProt Q9Y5Y9)
T1 construct: expressed in transfected cells; host or cells: HEK293
Experiment: Nav1.8 channel inhibition, estimated IC50 (one or more of: fluorescence inhibition assay, PatchXpress, IonFlux HT automated patch clamp)
Assay type: cell-based
Details: HEK293 cells stably expressing hNav1.8; method used per compound not stated; read-out: Activity range (estimated IC50)
Description: The ability of pyridine carboxamide derivatives exemplified above to inhibit the Nav1.8 channel was determined using one or more of the methods described below.
HEK Nav1.8 β1/β2 Stably Expressing Cell Line
A HEK293 cell line stably expressing the human Nav1.8 (hNav1.8) ion channel with β1/β2 subunits was constructed. The cell line is suitable for IC50 determination in fluorescence and electrophysiological based assays. It is also suitable to form mechanism of action pharmacology studies in electrophysiological assays. HEK293 Nav 1.8 cells are grown as adherent monolayers in DMEM/high glucose media, 10% fetal bovine serum, Na pyruvate (2 mM), Hepes (10 mM) with selection agents G418 (400 mg/L) and puromycin (0.5 mg/L) at 37 degrees C., 10% CO2.
Nav 1.8 Fluorescence Inhibition Assay
Compounds were made up to or supplied as a 10-mM stock solution using DMSO as the vehicle. Concentration-response curves were generated using a Matrix multichannel pipettor. Compound source plates were made by diluting 10 mM compound stocks to create 500 μM (100×) solutions in DMSO in 96-well v-bottom plates. Compounds were then serially diluted in 100% DMSO to generate a 5 point, 4-fold dilution scheme dose response curve. 2 μL of the 100× dose response curves was then added to preincubation and stimulation assay plates. 100 μL of pre-incubation buffer and 200 μL of stimulation buffer were then added to the plates resulting in a final assay test concentration range of 5 μM to 0.02 μM with a final DMSO concentration of 1%.
On the day of assay, plates were washed to remove cell culture media using 2K EBSS buffer (135 mM NaCl, 2 mM KCl, 5 mM Glucose, 2 mM CaCl2), 1 mM MgCl2, 10 mM HEPES, pH 7.4). The Na-sensitive fluorescent dye, Asante Natrium Green-2 (ANG-2) is incubated for 60 min to allow equilibration and then washed with 2K EBSS. Plates are the transferred to a fluorescence plate reader (FLIPR™, Molecular Devices) for fluorescence measurement using an excitation wavelength of 490 nm and an emission wavelength of 565 nm. Compounds are pre-incubated at for 5 min at final test concentration in the presence of ouabain (30 μM) to inhibit Na+ efflux through Na+/K+ exchanger. Following the pre-incubation phase, hNav1.8 channels are stimulated with 10 μM of the pyrethroid deltamethrin to prevent channel inactivation. The assay was run for 15 min with vehicle and 30 μM tetracaine serving as negative and positive controls, respectively. The peak change in fluorescence relative to negative and positive control wells was calculated and fit with a logistic equation to determine IC50.
PatchXpress Nav 1.8 Inhibition Assay
HEK-Nav1.8 β1/β2 cells were recorded in whole cell patch-clamp using the PatchXpress automated patch clamp platforms (Molecular Devices). Cells suspensions were obtained by trypsinization of adherent monolayers, followed by gentle rocking for minimally 30 min. Compounds were prepared from 10 mM DMSO stocks.
Nav1.8 channel variants were evaluated using Protocol 1 (FIG. 2) in which cells were initially voltage clamped at a holding potential of −100 mV to maintain Nav1.8 in a closed resting state. After current amplitude becomes stable, the mid-point voltage of steady state inactivation was determined for each cell using a series of 5 sec conditioning steps to increasingly depolarized voltages (−100 to 0 mV) The holding potential was then reset to a voltage that produces ˜50% inactivation (Vhalf−set automatically via PatchXpress scripts) so that closed and inactivated channel inhibition can be assessed. Protocol 1 was run at a frequency of 0.1 Hz until current amplitude is steady (automatically determined by PatchXpress scripts). The effect of test reagent on Nav current amplitude was monitored using custom PatchXpress stability scripts which determines the timing of compound addition and washout. Data were processed and analyzed using DataXpress 2.0 (Molecular Devices). […]

T1 sequence (Q9Y5Y9 whole entry): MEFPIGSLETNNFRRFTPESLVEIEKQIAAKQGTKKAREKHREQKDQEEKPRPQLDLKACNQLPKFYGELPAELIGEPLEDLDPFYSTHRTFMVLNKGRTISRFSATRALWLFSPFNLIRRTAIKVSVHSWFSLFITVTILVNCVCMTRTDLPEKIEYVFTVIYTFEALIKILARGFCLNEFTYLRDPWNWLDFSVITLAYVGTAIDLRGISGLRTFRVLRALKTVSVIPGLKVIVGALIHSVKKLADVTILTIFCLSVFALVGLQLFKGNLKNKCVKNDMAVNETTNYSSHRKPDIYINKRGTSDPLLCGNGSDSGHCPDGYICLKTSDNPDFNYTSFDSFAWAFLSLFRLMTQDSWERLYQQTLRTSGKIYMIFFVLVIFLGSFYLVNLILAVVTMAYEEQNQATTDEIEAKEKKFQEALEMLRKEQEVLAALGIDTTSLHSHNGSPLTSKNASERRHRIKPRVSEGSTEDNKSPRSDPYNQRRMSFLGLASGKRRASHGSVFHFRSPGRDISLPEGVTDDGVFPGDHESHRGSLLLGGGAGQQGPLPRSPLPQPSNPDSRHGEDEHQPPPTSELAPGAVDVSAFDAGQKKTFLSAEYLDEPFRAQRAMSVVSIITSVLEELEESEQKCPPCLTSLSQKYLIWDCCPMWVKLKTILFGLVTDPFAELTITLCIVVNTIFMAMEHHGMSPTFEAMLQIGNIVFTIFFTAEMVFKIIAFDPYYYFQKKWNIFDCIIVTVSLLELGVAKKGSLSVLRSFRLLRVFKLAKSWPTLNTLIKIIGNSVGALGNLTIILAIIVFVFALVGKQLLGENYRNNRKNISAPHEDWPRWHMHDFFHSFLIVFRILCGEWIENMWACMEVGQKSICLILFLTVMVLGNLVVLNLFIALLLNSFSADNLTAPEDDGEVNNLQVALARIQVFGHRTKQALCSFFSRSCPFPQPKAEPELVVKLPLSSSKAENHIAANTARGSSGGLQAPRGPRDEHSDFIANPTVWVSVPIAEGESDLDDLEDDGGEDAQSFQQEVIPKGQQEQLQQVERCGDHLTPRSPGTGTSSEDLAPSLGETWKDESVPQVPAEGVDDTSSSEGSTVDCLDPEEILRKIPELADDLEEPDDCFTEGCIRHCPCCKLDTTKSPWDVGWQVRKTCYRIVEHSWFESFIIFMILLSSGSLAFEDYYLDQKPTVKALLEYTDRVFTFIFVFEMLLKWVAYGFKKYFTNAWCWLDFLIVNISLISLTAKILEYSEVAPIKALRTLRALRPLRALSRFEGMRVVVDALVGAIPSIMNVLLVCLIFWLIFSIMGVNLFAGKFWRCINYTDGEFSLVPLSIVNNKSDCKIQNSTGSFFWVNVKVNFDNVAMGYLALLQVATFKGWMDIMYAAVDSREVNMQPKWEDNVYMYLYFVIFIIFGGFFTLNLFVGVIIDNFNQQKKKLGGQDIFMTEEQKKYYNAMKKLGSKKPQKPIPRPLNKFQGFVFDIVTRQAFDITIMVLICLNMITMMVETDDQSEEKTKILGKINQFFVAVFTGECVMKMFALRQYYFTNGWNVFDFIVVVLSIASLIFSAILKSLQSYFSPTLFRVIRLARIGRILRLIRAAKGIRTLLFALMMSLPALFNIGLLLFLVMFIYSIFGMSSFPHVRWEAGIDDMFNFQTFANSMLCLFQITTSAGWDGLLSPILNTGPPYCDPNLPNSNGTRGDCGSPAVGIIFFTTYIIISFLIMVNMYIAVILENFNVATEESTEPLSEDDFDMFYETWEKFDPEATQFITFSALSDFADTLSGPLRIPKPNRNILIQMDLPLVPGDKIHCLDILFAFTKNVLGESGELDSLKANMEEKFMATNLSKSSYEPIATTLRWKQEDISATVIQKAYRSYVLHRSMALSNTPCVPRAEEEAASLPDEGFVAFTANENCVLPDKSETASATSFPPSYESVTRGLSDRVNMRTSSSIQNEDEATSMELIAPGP

IC50 [nM]	SMILES
> 1000	O=C(Nc1ccc[n+]([O-])c1)c1cnc(C(F)(F)F)cc1Oc1ccc(F)cc1F [Example 89, 4-(2,4-difluorophenoxy)-N-(1-oxidopyridin-1-ium-3-yl)-6-(trifluoromethyl)pyridine-3-carboxamide]
< 500	Cc1cc(F)ccc1Oc1cc(C(F)(F)F)ncc1C(=O)Nc1ccnnc1 [Example 95, 4-(4-fluoro-2-methyl-phenoxy)-N-pyridazin-4-yl-6-(trifluoromethyl)pyridine-3-carboxamide]
< 500	CC(C)c1ccccc1Oc1ncc(C(F)(F)F)cc1C(=O)Nc1cccc(S(C)(=O)=O)c1 [Example 46, 2-(2-isopropylphenoxy)-N-(3-methylsulfonyl-phenyl)-5-(trifluoromethyl)pyridine-3-carboxamide]
< 500	C[S+]([O-])c1cccc(NC(=O)c2cc(C(F)(F)F)cnc2Oc2ccc(OC(F)(F)F)cc2)c1 (centres unmarked) [Example 121, N-(3-methylsulfinylphenyl)-2-[4-(trifluoromethoxy)phenoxy]-5-(trifluoromethyl)pyridine-3-carboxamide]
< 500	CS(=O)(=O)c1cccc(NC(=O)c2cnc(C(F)(F)F)cc2Oc2ccc(OC(F)(F)F)cc2Cl)c1 [Example 74, 4-[2-chloro-4-(trifluoromethoxy)phenoxy]-N-(3-methylsulfonylphenyl)-6-(trifluoromethyl)pyridine-3-carboxamide]
< 500	CS(=N)(=O)c1cccc(NC(=O)c2cc(C(F)(F)F)cnc2Oc2ccc(F)cc2F)c1 (centres unmarked) [Example 174, 2-(2,4-difluorophenoxy)-N-[3-(methylsulfonimidoyl)phenyl]-5-(trifluoromethyl)pyridine-3-carboxamide]
< 500	CN=S(C)(=O)c1cccc(NC(=O)c2cc(C(F)(F)F)cnc2Oc2ccc(OC(F)(F)F)cc2Cl)c1 (centres unmarked) [Example 144, 2-[2-chloro-4-(trifluoromethoxy)phenoxy]-N-[3-(N,S-dimethylsulfonimidoyl)phenyl]-5-(trifluoromethyl)pyridine-3-carboxamide]
< 500	CN=S(C)(=O)c1cccc(NC(=O)c2cnc(C(F)(F)F)cc2Oc2ccc(OC(F)(F)F)cc2Cl)c1 (centres unmarked) [Example 82, 4-[2-chloro-4-(trifluoromethoxy)phenoxy]-N-[3-(N,S-dimethylsulfonimidoyl)phenyl]-6-(trifluoromethyl)pyridine-3-carboxamide]
< 500	CN=S(C)(=O)c1cccc(NC(=O)c2cc(C(F)(F)F)cnc2Oc2ccc(OC(F)(F)F)cc2)c1 (centres unmarked) [Example 124, N-[3-(N,S-dimethylsulfonimidoyl)phenyl]-2-[4-(trifluoromethoxy)phenoxy]-5-(trifluoromethyl)pyridine-3-carboxamide]

The remaining lines, values behind:

SMILES	IC50 [nM]
CN(C)c1ccccc1Oc1ncc(C(F)(F)F)cc1C(=O)Nc1cccc(S(C)(=O)=O)c1 [Example 52, 2-[2-(dimethylamino)phenoxy]-N-(3-methylsulfonyl-phenyl)-5-(trifluoromethyl)pyridine-3-carboxamide]	500 to 1000
COc1ccc(Oc2ncc(C(F)(F)F)cc2C(=O)Nc2ccc[n+]([O-])c2)c(Cl)c1 [Example 138, 3-(2-(2-chloro-4-methoxyphenoxy)-5-(trifluoromethyl)nicotinamido)pyridine 1-oxide]	< 500
Cc1cc(F)ccc1Oc1ncc(C(F)(F)F)cc1C(=O)Nc1cccc(S(C)(=N)=O)c1 (centres unmarked) [Example 115, 2-(4-fluoro-2-methyl-phenoxy)-N-[3-(methylsulfonimidoyl)phenyl]-5-(trifluoromethyl)pyridine-3-carboxamide]	< 500
Cc1cc(F)ccc1Oc1cc(C(F)(F)F)ncc1C(=O)Nc1cccc(S(C)(=N)=O)c1 (centres unmarked) [Example 93, 4-(4-fluoro-2-methyl-phenoxy)-N-[3-(methylsulfonimidoyl)phenyl]-6-(trifluoromethyl)pyridine-3-carboxamide]	> 1000
O=C(Nc1ccncc1)c1cnc(C(F)(F)F)cc1Oc1ccc(OC(F)(F)F)cc1Cl [Example 79, 4-[2-chloro-4-(trifluoromethoxy)phenoxy]-N-(4-pyridyl)-6-(trifluoromethyl)pyridine-3-carboxamide]	< 500
CS(=O)(=O)c1cccc(NC(=O)c2cc(C(F)(F)F)cnc2Oc2cc(F)c(F)c(F)c2)c1 [Example 55, N-(3-methylsulfonyl-phenyl)-5-(trifluoromethyl)-2-(3,4,5-trifluorophenoxy)pyridine-3-carboxamide]	500 to 1000
CS(=O)(=O)c1cccc(NC(=O)c2cc(C(F)(F)F)cnc2Oc2ccc(F)c(F)c2)c1 [Example 47, 2-(3,4-difluorophenoxy)-N-(3-methylsulfonyl-phenyl)-5-(trifluoromethyl)pyridine-3-carboxamide]	< 500
O=C(Nc1ccnnc1)c1cc(C(F)(F)F)cnc1Oc1ccc(OC(F)F)cc1 [Example 64, 2-[4-(difluoromethoxy)phenoxy]-N-pyridazin-4-yl-5-(trifluoromethyl)pyridine-3-carboxamide]	> 1000
O=C(Nc1ccnnc1)c1cc(C(F)(F)F)cnc1Oc1ccc(OC(F)(F)F)cc1 [Example 128, N-pyridazin-4-yl-2-[4-(trifluoromethoxy)phenoxy]-5-(trifluoromethyl)pyridine-3-carboxamide]	< 500
O=C(Nc1ccnnc1)c1cc(C(F)(F)F)cnc1Oc1ccc(Cl)cc1Cl [Example 63, 2-(2,4-dichlorophenoxy)-N-pyridazin-4-yl-5-(trifluoromethyl)pyridine-3-carboxamide]	500 to 1000
O=C(Nc1ccnc(F)c1)c1cc(C(F)(F)F)cnc1Oc1ccc(OC(F)(F)F)cc1Cl [Example 165, 2-[2-chloro-4-(trifluoromethoxy)phenoxy]-N-(2-fluoro-4-pyridyl)-5-(trifluoromethyl)pyridine-3-carboxamide]	< 500
C[S+]([O-])c1cccc(NC(=O)c2cnc(C(F)(F)F)cc2Oc2ccc(OC(F)(F)F)cc2Cl)c1 (centres unmarked) [Example 75, 4-[2-chloro-4-(trifluoromethoxy)phenoxy]-N-(3-methylsulfinylphenyl)-6-(trifluoromethyl)pyridine-3-carboxamide]	< 500
COc1cc(F)ccc1Oc1ncc(C(F)(F)F)cc1C(=O)Nc1ccc(C#N)cc1 [Example 5, N-(4-cyanophenyl)-2-(4-fluoro-2-methoxy-phenoxy)-5-(trifluoromethyl)pyridine-3-carboxamide]	> 1000
O=C(Nc1ccc[n+]([O-])c1)c1cnc(C(F)(F)F)cc1Oc1ccc(OC(F)(F)F)cc1Cl [Example 83, 4-[2-chloro-4-(trifluoromethoxy)phenoxy]-N-(1-oxidopyridin-1-ium-3-yl)-6-(trifluoromethyl)pyridine-3-carboxamide]	< 500
COc1cc(F)ccc1Oc1cc(C(F)(F)F)ncc1C(=O)Nc1cc(S(C)(=O)=O)ccc1F [Example 69, 4-(4-fluoro-2-methoxy-phenoxy)-N-(2-fluoro-5-methylsulfonyl-phenyl)-6-(trifluoromethyl)pyridine-3-carboxamide]	< 500
Cc1cc(F)ccc1Oc1ncc(C(F)(F)F)cc1C(=O)Nc1cc[nH]c(=O)c1 [Example 110, 2-(4-fluoro-2-methyl-phenoxy)-N-(2-oxo-1H-pyridin-4-yl)-5-(trifluoromethyl)pyridine-3-carboxamide]	> 1000
COc1cc(F)ccc1Oc1cc(C(F)(F)F)ncc1C(=O)Nc1ccnnc1 [Example 71, 4-(4-fluoro-2-methoxy-phenoxy)-N-pyridazin-4-yl-6-(trifluoromethyl)pyridine-3-carboxamide]	< 500
